Activity calls are given as the source filed them. The calls are words filed in the database; no cut-off is given here.

The assay deals with T1, Histone-lysine N-methyltransferase SETD7 (Homo sapiens) (UniProt Q8WTS6).
T1 sequence (whole entry): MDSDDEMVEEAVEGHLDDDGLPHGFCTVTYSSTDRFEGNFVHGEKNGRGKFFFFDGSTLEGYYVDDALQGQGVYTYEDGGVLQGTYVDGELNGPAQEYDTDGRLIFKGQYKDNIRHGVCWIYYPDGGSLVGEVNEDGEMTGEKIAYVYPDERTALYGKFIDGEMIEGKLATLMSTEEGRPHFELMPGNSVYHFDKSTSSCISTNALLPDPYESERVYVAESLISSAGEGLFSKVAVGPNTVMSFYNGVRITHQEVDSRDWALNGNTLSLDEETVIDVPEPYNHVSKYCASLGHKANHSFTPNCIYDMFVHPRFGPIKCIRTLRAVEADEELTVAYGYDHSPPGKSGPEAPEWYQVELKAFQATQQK
Put plainly: Inhibition of human recombinant SET7/9 in cell free system assessed as monomethylation of histone H3 Lys4 residue after 1 hr in presence of 2 uM AdoMet.
As for `CCCCCCN(CC[C@H](N)C(=O)O)C[C@H]1O[C@@H](n2cnc3c(N)ncnc32)[C@H](O)[C@@H]1O`, the inhibition entry was “inactive”.

With `CNCCN(CC[C@H](N)C(=O)O)C[C@H]1O[C@@H](n2cnc3c(N)ncnc32)[C@H](O)[C@@H]1O`, the inhibition result was “Active”.

Regarding `CCCNCCN(CC[C@H](N)C(=O)O)C[C@H]1O[C@@H](n2cnc3c(N)ncnc32)[C@H](O)[C@@H]1O`, the inhibition entry was “Active”.

Regarding `Nc1ncnc2c1ncn2[C@@H]1O[C@H](CN(CCNCCc2ccccc2)CC[C@H](N)C(=O)O)[C@@H](O)[C@H]1O`, the inhibition result is “Active”.

As to `CCCCCCNCCN(CC[C@H](N)C(=O)O)C[C@H]1O[C@@H](n2cnc3c(N)ncnc32)[C@H](O)[C@@H]1O`, the inhibition entry is “Active”.
